Data: US7198804B2, “Crude drug composition for preventing and treating gastrointestinal dyskinetic diseases” (Helixir Co., Ltd., priority 2002, dated 2007)
Counter-ions that a name gives are not always drawn.

Legend:
[1] = system: gastrointestinal motility; assay: Gastrointestinal transit (GIT) of charcoal meal in mice; format: in vivo, ICR derived mice; conditions: for GIT: mean±S.E.M.
Protocol: Female ICR derived mice (Seoul National University) weighing 22±2 grams were used. All animals were maintained in a controlled environment with temperatures at 22° C.–24° C. and humidity at 60%–80% with 12 hours of light and dark cycles for at least one week prior to use. 9 groups of 8 ICR derived female mice were fasted with free access to water for 16 hours prior to testing.
For the estimation of the effect on gastrointestinal motility, 0.1 g of the brown powder of each formulation obtained in Example 1, was dissolved in 1 ml of 2% Tween 80 (Wako, Japan) and administrated orally to the mice.
Atropine sulfate (Sigma, USA) was used for the negative control in the experiment, which is known to induce smooth muscle relaxation. Mosapride citrate was administered at 20 mg/kg. Each crude drug composition of 6 formulations prepared in Example 1, was administered at 1.0 g/kg. At 60 minutes post dosing, the animals were given a suspension of 5% activated charcoal (Sigma, USA) in a 10% arabic gum (Sigma, USA) solution (0.3 ml/animal p.o.) and sacrificed 15 minutes later.
The intestine was removed and the length of the gut in cm (GL) as well as distance of charcoal movement from the pylorus to the beginning of the charcoal column in cm (CP), was measured. Gastrointestinal transit (GIT) has been calculated as below Formula 1. The mean GIT value of each group has been compared to that of the vehicle control. GIT(%)=(CP/GL)×100 Formula 1
Values were expressed as means±S.E.M. Students' t-test was used for the statistical analysis of the results of gastrointestinal transit. Probability values (p) less than 0.05 were considered to be significant.
PG202, prepared in Example 1, was administered into the mice orally at concentrations of 0.1 g/kg, 1.0 g/kg, and 5.0 g/kg. The control group was administered with the vehicle (2% Tween 80) at 10 ml/kg. At 60 minutes post dosing, the animals were given a suspension of 5% activated charcoal (Sigma, USA) in a 10% Arabic gum (Sigma, USA) solution (0.3 ml/animal p.o.) and sacrificed 15 minutes later and the gastrointestinal transit (GIT) was examined according to the Formula 1. Data have been expressed as means±S.E.M.*p<0.05.
PG202 was administrated orally at 1.0 g/kg to the test group, 2% Tween 80 (Wako, Japan) at 10 ml/kg to control group, Mosapride citrate at 20 mg/kg to positive control group, Atropine sulfate (Sigma, USA) at 100 mg/kg to negative control group. Data have been expressed as means±S.E.M.*p<0.05.
At 60 minutes post dosing, the animals were given a suspension of 5% activated charcoal (Sigma, USA) in a 10% arabic gum (Sigma, USA) solution (0.3 ml /animal p.o.) and sacrificed 15 minutes later. GIT (%) values were determined according to the Formula 1.

rodents = conditions: cited from earlier work

SMILES | decrease of GIT in comparison to the control group ([1]; 100 mg/kg p.o.) [%] | GIT ([1]; 100 mg/kg p.o., negative control) [%] | increase of GIT compared to the control ([1]; 20 mg/kg p.o.) [%] | GIT ([1]; 20 mg/kg p.o., positive control) [%] | incidence of hepatocellular adenoma and thyroid follicular cell adenoma (rodents)
CN1[C@@H]2CC[C@H]1CC(OC(=O)C(CO)c1ccccc1)C2.CN1[C@@H]2CC[C@H]1CC(OC(=O)C(CO)c1ccccc1)C2.O=S(=O)(O)O (some centres unmarked) [Atropine, Atropine sulfate] | 35 | 35.4±3.4 |  |  | 
CCOc1cc(N)c(Cl)cc1C(=O)NCC1CN(Cc2ccc(F)cc2)CCO1 (centres unmarked) [mosapride citrate] |  |  | 21 | 63.7±5.2 | increased
